Test results from patent publication US8309582B2, “Small molecule Bcl-Xl/Bcl-2 binding inhibitors” (The Ohio State University Research Foundation, priority 2004, dated 2012).

Columns and labels:
[1] = WB (IC50 for WB, Tables 1-9); format: cell-based; conditions: marker, cell line and unit inferred
Protocol: Immunoblotting. Cells in T-75 flasks were collected by scraping, and suspended in 60 μl of phosphate-buffered saline (PBS). Two μl of the suspension was taken for protein analysis using the Bradford assay kit (Bio-Rad, Hercules, Calif.). To the remaining solution was added the same volume of 2×SDS-PAGE sample loading buffer (100 mM Tris-HCl, pH 6.8, 4% SDS, 5% β-mercaptoethanol 20% glycerol, and 0.1% bromophenol blue). The mixture was sonicated briefly, and boiled for 5 min. Equal amounts of proteins were loaded onto 10% SDS-PAGE gels.
After electrophoresis, protein bands were transferred to nitrocellulose membranes in a semidry transfer cell. The transblotted membrane was washed twice with Tris-buffered saline (TBS) containing 0.1% Tween 20 (TBST). After blocking with TBST containing 5% nonfat milk for 40 min, the membrane was incubated with the appropriate primary antibody in TBST-1% nonfat milk at 4° C. overnight. All primary antibodies were diluted 1:1000 in 1% nonfat milk-containing TBST. After treatment with the primary antibody, the membrane was washed three times with TBST for a total of 15 min, followed by incubation with goat anti-rabbit or anti-mouse IgG-horseradish peroxidase conjugates (diluted 1:5000) for 1 h at room temperature and three washes with TBST for a total of 1 h. The immunoblots were visualized by enhanced chemiluminescence.

[2] = test system: PC-3 cells; test: Cell viability analysis (MTT) in PC-3 cells; format: cell-based; conditions: Homo sapiens, PC-3, PC-3 cells, read-out: IC50 (μM) PC3
Protocol: Cell viability analysis. The effect of individual test agents on cell viability was assessed by using the MTT {[3-(4,5-dimethylthiazol-2-yl)-2,5-diphenyl-2H-tetrazolium bromide]} assay in six to twelve replicates. […] Controls received DMSO vehicle at a concentration equal to that in drug-treated cells. […] Supernatants were removed from the wells, and the reduced MTT dye was solubilized in 200 μl/well DMSO. Absorbance at 570 nm was determined on a plate reader.
(§1) Determination of IC50 values. Data from cell viability and FP assays were analyzed by using the CalcuSyn software (Biosoft, Ferguson, Mo.) to determine IC50 values, in which the calculation was based on the medium effect equation (18), i.e., Log(fa/fu)=m log(D)−m log(Dm) (equation 1), where fa and fu denote fraction affected and unaffected, respectively; m represents the Hill-type coefficient signifying the sigmoidicity of the dose-effect curve; D and Dm are the dose used and IC50, respectively.

[3] = MTT assay (IC50 for MTT, Tables 1-9); format: cell-based; conditions: cell line and unit inferred
Protocol: Cell viability analysis. The effect of individual test agents on cell viability was assessed by using the MTT {[3-(4,5-dimethylthiazol-2-yl)-2,5-diphenyl-2H-tetrazolium bromide]} assay in six to twelve replicates. Cells were seeded and incubated in 96-well, flat-bottomed plates in serum-free media for 24 h, and were exposed to various concentrations of test agents dissolved in DMSO (final concentration, 0.1%) in serum-free RPMI 1640 medium for different time intervals. Controls received DMSO vehicle at a concentration equal to that in drug-treated cells. The medium was removed, replaced by 200 μl of 0.5 mg/ml of MTT in 10% FBS-containing RPMI-1640 medium, and cells were incubated in the CO2 incubator at 37° C. for 2 h. Supernatants were removed from the wells, and the reduced MTT dye was solubilized in 200 μl/well DMSO. Absorbance at 570 nm was determined on a plate reader.
as §1

[4] = target: T1, Bcl-xL (Homo sapiens, UniProt Q07817); test: Competitive fluorescence polarization assay, displacement of Flu-BakBH3 peptide from Bcl-xL; format: binding; conditions: unit inferred; read-out: IC50 for inhibiting BH3-mediated protein interactions (Bcl-xL)
T1 construct: fused on or other part: His tag
Protocol: (§2) Competitive Fluorescence Polarization Assay. The binding affinity of the test agent to Bcl-2 and Bcl-xL was analyzed by a competitive fluorescence polarization assay, in which the ability of the agent to displace the binding of a Bak BH3-domain peptide to either Bcl-2 or Bcl-xL was determined. Flu-BakBH3, a Bak-BH3 peptide labeled at the N-terminus with fluorescein, was purchased from Genemed Synthesis (San Francisco, Calif.). C-Terminal-truncated, His-tagged Bcl-xL was purchased from EMD Biosciences (San Diego, Calif.), and soluble GST-fused Bcl-2 was obtained from Santa Cruz (Santa Cruz, Calif.). The KD determination was carried out in a dual-pathlength quartz cell with readings taken at […] at room temperature using a luminescence spectrometer according to an established procedure (17). Determination of IC50 values. Data from cell viability and FP assays were analyzed by using the CalcuSyn software (Biosoft, Ferguson, Mo.) to determine IC50 values, in which the calculation was based on the medium effect equation (18), i.e., Log(fa/fu)=m log(D)−m log(Dm) (equation 1), where fa and fu denote fraction affected and unaffected, respectively; m represents the Hill-type coefficient signifying the sigmoidicity of the dose-effect curve; D and Dm are the dose used and IC50, respectively.

[5] = target: Bcl-2 (Homo sapiens, UniProt P10415); test: Competitive fluorescence polarization assay, displacement of Flu-BakBH3 peptide from Bcl-2; format: binding; conditions: unit inferred; read-out: IC50 for inhibiting BH3-mediated protein interactions (Bcl-2)
Protocol: as §2

Chain of Bcl-2 (P10415 whole entry): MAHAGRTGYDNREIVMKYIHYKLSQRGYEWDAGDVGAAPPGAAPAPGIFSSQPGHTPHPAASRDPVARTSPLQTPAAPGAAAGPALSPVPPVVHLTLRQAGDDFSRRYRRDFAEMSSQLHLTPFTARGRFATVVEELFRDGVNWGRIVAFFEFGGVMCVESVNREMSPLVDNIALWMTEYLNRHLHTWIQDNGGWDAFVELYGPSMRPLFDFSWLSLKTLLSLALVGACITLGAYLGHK
T1 sequence (Q07817 1-209 limits assumed): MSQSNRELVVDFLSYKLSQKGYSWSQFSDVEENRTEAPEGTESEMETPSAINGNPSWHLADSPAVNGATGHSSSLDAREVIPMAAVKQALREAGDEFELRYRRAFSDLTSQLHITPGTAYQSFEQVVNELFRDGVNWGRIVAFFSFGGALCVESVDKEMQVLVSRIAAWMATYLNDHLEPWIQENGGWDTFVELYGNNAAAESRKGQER

IC50 [1] | IC50 [2] | IC50 [4] | IC50 [5] | Compound | IC50 [3]
2.7 µM | > 50 µM | – | – | CC(C)=CCOc1c(C)c(C)c2c(c1C)CCC(C)(COc1ccc(/C=C3\SC(=O)NC3=O)cc1[N+](=O)[O-])O2 (centres unmarked) [TG-35] | –
> 7.5 µM | > 50 µM | – | – | CC(C)=CCOc1c(C)c(C)c2c(c1C)CCC(C)(COc1ccc(C=C(C#N)C#N)cc1Br)O2 (centres unmarked) [TG-36] | > 50 µM
> 7.5 µM | 6 ± 0.7 µM | – | – | CC(C)=CCOc1c(C)c(C)c2c(c1C)CCC(C)(COc1ccc(/C=C/C(=O)O)cc1Br)O2 (centres unmarked) [TG-37] | –
4.5 µM | 12.5 ± 0.6 µM | – | – | CCOC(=O)C(C)(C)C(O)c1ccc(OCC2(C)CCc3c(C)c(OCC=C(C)C)c(C)c(C)c3O2)c(Br)c1 (centres unmarked) [TG-38] | > 50 µM
> 7.5 µM | 7 ± 0.4 µM | – | – | CC(C)=CCOc1c(C)c(C)c2c(c1C)CCC(C)(COc1ccc(C(O)C(C)(C)C(=O)O)cc1Br)O2 (centres unmarked) [TG-39] | –
> 7.5 µM | > 50 µM | – | – | CCOC(=O)C(=Cc1ccc(OCC2(C)CCc3c(C)c(OCC=C(C)C)c(C)c(C)c3O2)c(Br)c1)C(=O)OCC (centres unmarked) [TG-41] | > 50 µM
> 7.5 µM | 16 ± 0.3 µM | – | – | CC(C)=CCOc1c(C)c(C)c2c(c1C)CCC(C)(COc1ccc(C=C(C(=O)O)C(=O)O)cc1Br)O2 (centres unmarked) [TG-42] | > 50 µM
7.2 µM | 3 ± 0.2 µM | – | – | CC(C)=CCOc1c(C)c(C)c2c(c1C)CCC(C)(COc1ccc(/C=C3\SC(=O)NC3=O)c3ccccc13)O2 (centres unmarked) [TG-43] | –
> 7.5 µM | 5.1 ± 0.4 µM | – | – | COc1cc(/C=C2\SC(=O)NC2=O)cc(Br)c1OCC1(C)CCc2c(C)c(OCC=C(C)C)c(C)c(C)c2O1 (centres unmarked) [TG-44] | –
6.7 µM | 4.6 ± 0.3 µM | – | – | CCOc1cc(/C=C2\SC(=O)NC2=O)ccc1OCC1(C)CCc2c(C)c(OCC=C(C)C)c(C)c(C)c2O1 (centres unmarked) [TG-45] | –
6.7 µM | 5.3 ± 0.3 µM | – | – | CC(C)=CCOc1c(C)c(C)c2c(c1C)CCC(C)(COc1ccc(/C=C3\SC(=S)NC3=O)c3ccccc13)O2 (centres unmarked) [TG-46] | –
4.4 µM | 6.8 ± 0.2 µM | – | – | C=CCOc1c(C)c(C)c2c(c1C)CCC(C)(COc1cccc(/C=C3\SC(=O)NC3=O)c1)O2 (centres unmarked) [TG-51] | 40 µM
7.5 µM | 4.5 ± 0.2 µM | – | – | C=CCOc1c(C)c(C)c2c(c1C)CCC(C)(COc1c(C)cc(/C=C3\SC(=O)NC3=O)cc1C)O2 (centres unmarked) [TG-52] | –
3.4 µM | 3.3 ± 0.3 µM | – | – | C=CCOc1c(C)c(C)c2c(c1C)CCC(C)(COc1ccc(/C=C3\SC(=O)NC3=O)c3ccccc13)O2 (centres unmarked) [TG-53] | –
3.8 µM | – | – | – | C=CCOc1c(C)c(C)c2c(c1C)CCC(C)(COc1c(Br)cc(/C=C3\SC(=O)NC3=O)cc1OC)O2 (centres unmarked) [TG-54] | –
> 7.5 µM | – | – | – | C=CCOc1c(C)c(C)c2c(c1C)CCC(C)(COc1ccc(/C=C3\SC(=O)NC3=O)cc1OCC)O2 (centres unmarked) [TG-55] | –
– | 4.4 ± 0.4 µM | – | – | CC(C)=CCOc1c(C)c(C)c2c(c1C)CCC(C)(COc1ccc(/C=C3\SC(=S)NC3=O)cc1Br)O2 (centres unmarked) [TG-89] | –
– | – | > 50 µM | > 50 µM | CN(CCOc1ccc(C=C2SC(O)=NC2=O)cc1)c1ccccn1 [Δ2-RG, 5-{4-[2-(methyl-pyridin-2-yl-amino)-ethoxy]-benzylidene}-thiazolidine-2,4-dione] | –
